Experimental data from patent publication US20230085307A1, “PYRIDAZINONE COMPOUND AND HERBICIDE” (NISSAN CHEMICAL CORPORATION, priority 2019, published 2023).

What was measured:
velvetleaf [1] = experiment: Test Example 5: herbicidal effect by foliage application, plastic box (Table 20, symbol M); assay type: in vivo, velvetleaf (Abutilon theophrasti); conditions: foliage application, evaluated 3 weeks after application
Method in brief: (§1)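 Post-emergence foliar test in sterilized diluvial soil. Compound applied as water-diluted emulsion at a predetermined rate to 14-day-old plants; evaluation at three weeks.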

false cleavers = experiment: Test Example 4: herbicidal effect by soil treatment (Table 19, symbol Q); assay type: in vivo, false cleavers (Galium spurium)
Method in brief: (§2)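 Scoring uses the grading scale of an earlier test, three weeks post-application. Treatment consists of spraying a diluted emulsion formulation across the surface of sterilized diluvial soil in which seeds are buried near 1.5 cm deep; boxes are kept in a greenhouse between 25° C. and 30° C.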

blackgrass [2] = experiment: Test Example 5: herbicidal effect by foliage application, plastic box (Table 20, symbol J); assay type: in vivo, blackgrass (Alopecurus myosuroides); conditions: foliage application, evaluated 3 weeks after application
Method in brief: as §1

late watergrass [3] = experiment: Test Example 1: herbicidal activity, application before weed generation under submerged conditions (Table 16, symbol A); assay type: in vivo, late watergrass (Echinochloa oryzicola)
Method in brief: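 Submerged Wagner pots (alluvial soil, 4 cm water) sown with weed seeds and planted with 2.5-leaf rice seedlings; emulsifiable concentrate diluted in water applied to water surface on sowing day. Held in greenhouse at 25-30 °C; injury scored 0-5 by herbicidal rate after three weeks.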

Italian ryegrass = experiment: Test Example 5: herbicidal effect by foliage application, plastic box (Table 20, symbol K); assay type: in vivo, Italian ryegrass (Lolium multiflorum); conditions: foliage application, evaluated 3 weeks after application
Method in brief: as §1

barnyard grass [4] = experiment: Test Example 3: herbicidal effect by foliage application, Wagner pot (Table 18, symbol H); assay type: in vivo, barnyard grass (Echinochloa crus-galli)
Method in brief: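 Plants were sown in alluvial soil held under 0.1–0.5 cm standing water and grown 14 days in a greenhouse at 25–30 °C. An emulsifiable formulation, water-diluted to the set dose, was then sprayed onto the foliage, and effects were scored three weeks later using previously defined criteria.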

lambsquarters = experiment: Test Example 4: herbicidal effect by soil treatment (Table 19, symbol O); assay type: in vivo, lambsquarters (Chenopodium album)
Method in brief: as §2

chickweed = experiment: Test Example 5: herbicidal effect by foliage application, plastic box (Table 20, symbol P); assay type: in vivo, common chickweed (Stellaria media); conditions: foliage application, evaluated 3 weeks after application
Method in brief: as §1

green foxtail = experiment: Test Example 5: herbicidal effect by foliage application, plastic box (Table 20, symbol G); assay type: in vivo, green foxtail (Setaria viridis); conditions: foliage application, evaluated 3 weeks after application
Method in brief: as §1

velvetleaf [5] = experiment: Test Example 4: herbicidal effect by soil treatment (Table 19, symbol M); assay type: in vivo, velvetleaf (Abutilon theophrasti)
Method in brief: as §2

barnyard grass [6] = experiment: Test Example 5: herbicidal effect by foliage application, plastic box (Table 20, symbol H); assay type: in vivo, barnyard grass (Echinochloa crus-galli); conditions: foliage application, evaluated 3 weeks after application
Method in brief: as §1

late watergrass [7] = experiment: Test Example 2: herbicidal activity, application during weed generation under submerged conditions (Table 17, symbol A); assay type: in vivo, late watergrass (Echinochloa oryzicola); conditions: for herbicidal effect grade, A: late watergrass: application during weed generation under submerged conditions
Method in brief: (§3)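 Mixed weed seedlings in alluvial soil under a 4 cm water layer, greenhouse-grown at 25–30° C. Compound given as a diluted emulsion into the floodwater at the 1–2 leaf stage; response graded after three weeks.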

oval-leafed pondweed = experiment: Test Example 2: herbicidal activity, application during weed generation under submerged conditions (Table 17, symbol C); assay type: in vivo, oval-leafed pondweed (Monochoria vaginalis); conditions: for herbicidal effect grade, C: oval-leafed pondweed: application during weed generation under submerged conditions
Method in brief: as §3

southern crabgrass = experiment: Test Example 4: herbicidal effect by soil treatment (Table 19, symbol F); assay type: in vivo, southern crabgrass (Digitaria ciliaris)
Method in brief: as §2

persian speedwell = experiment: Test Example 4: herbicidal effect by soil treatment (Table 19, symbol R); assay type: in vivo, Persian speedwell (Veronica persica)
Method in brief: as §2

blackgrass [8] = experiment: Test Example 4: herbicidal effect by soil treatment (Table 19, symbol J); assay type: in vivo, blackgrass (Alopecurus myosuroides)
Method in brief: as §2

barnyard grass [9] = experiment: Test Example 4: herbicidal effect by soil treatment (Table 19, symbol H); assay type: in vivo, barnyard grass (Echinochloa crus-galli)
Method in brief: as §2

[10] = amount of applied herbicide 320 g/ha
[11] = AAH 320 g/ha, application during weed generation, submerged conditions
[12] = amount of applied herbicide 402 g/ha

Compound | M (velvetleaf) herbicidal effect grade (velvetleaf [1]; 320 g/ha) | Q: false cleavers, herbicidal effect grade (false cleavers; [10]) | J (blackgrass) herbicidal effect grade (blackgrass [2]; 320 g/ha) | Herbicidal effect, A: late watergrass (late watergrass [3]; [10]) | K (Italian ryegrass) herbicidal effect grade (Italian ryegrass; 320 g/ha) | Herbicidal effect on H (barnyard grass), foliage application (barnyard grass [4]; [10]) | O: lambsquarters, herbicidal effect grade (lambsquarters; [10]) | P (chickweed) herbicidal effect grade (chickweed; 320 g/ha) | G (green foxtail) herbicidal effect grade (green foxtail; 320 g/ha) | M: velvetleaf, herbicidal effect grade (velvetleaf [5]; [10]) | H (barnyard grass) herbicidal effect grade (barnyard grass [6]; 320 g/ha) | F: southern crabgrass, herbicidal effect grade (southern crabgrass; [10]) | R: persian speedwell, herbicidal effect grade (persian speedwell; [10]) | J: blackgrass, herbicidal effect grade (blackgrass [8]; [10]) | H: barnyard grass, herbicidal effect grade (barnyard grass [9]; [10]) | herbicidal effect grade, A: late watergrass (late watergrass [7]; [10]) | herbicidal effect grade, C: oval-leafed pondweed (oval-leafed pondweed; [10]) | further results
CCCOc1ccc(-c2oc3ccc(C)cc3c2-c2c(O)c(C)nn(C)c2=O)cc1 [9-049] | 5 (Herbicidal rate of 90% or more (almost completely withered)) | 0 (Herbicidal rate of 5% or less (almost no effect)) | 4 (Herbicidal rate of 70% or more and less than 90%) | 5 (Herbicidal rate of 90% or more (almost completely withered)) | 5 (Herbicidal rate of 90% or more (almost completely withered)) | 5 (Herbicidal rate of 90% or more (almost completely withered)) | 4 (Herbicidal rate of 70% or more and less than 90%) | 5 (Herbicidal rate of 90% or more (almost completely withered)) | 5 (Herbicidal rate of 90% or more (almost completely withered)) | 3 (Herbicidal rate of 40% or more and less than 70%) | 5 (Herbicidal rate of 90% or more (almost completely withered)) | 4 (Herbicidal rate of 70% or more and less than 90%) | 5 (Herbicidal rate of 90% or more (almost completely withered)) | 0 (Herbicidal rate of 5% or less (almost no effect)) | 4 (Herbicidal rate of 70% or more and less than 90%) | – | – | herbicidal effect rating, A: late watergrass (late watergrass [7]; [11]): 5 (Herbicidal rate of 90% or more (almost completely withered)); herbicidal effect rating, C: oval-leafed pondweed (oval-leafed pondweed; [11]): 4 (Herbicidal rate of 70% or more and less than 90%)
CCCC(=O)Oc1c(C)nn(C)c(=O)c1-c1c(-c2ccc(SCC)cc2)oc2ccc(C)cc12 [9-058] | 5 (Herbicidal rate of 90% or more (almost completely withered)) | 0 (Herbicidal rate of 5% or less (almost no effect)) | 3 (Herbicidal rate of 40% or more and less than 70%) | 5 (Herbicidal rate of 90% or more (almost completely withered)) | 5 (Herbicidal rate of 90% or more (almost completely withered)) | 5 (Herbicidal rate of 90% or more (almost completely withered)) | 5 (Herbicidal rate of 90% or more (almost completely withered)) | 5 (Herbicidal rate of 90% or more (almost completely withered)) | 5 (Herbicidal rate of 90% or more (almost completely withered)) | 3 (Herbicidal rate of 40% or more and less than 70%) | 4 (Herbicidal rate of 70% or more and less than 90%) | 5 (Herbicidal rate of 90% or more (almost completely withered)) | 5 (Herbicidal rate of 90% or more (almost completely withered)) | 0 (Herbicidal rate of 5% or less (almost no effect)) | 2 (Herbicidal rate of 20% or more and less than 40%) | 4 (Herbicidal rate of 70% or more and less than 90%) | 4 (Herbicidal rate of 70% or more and less than 90%) | –
CCCC(=O)Oc1c(C)nn(C)c(=O)c1-c1c(-c2ccc(SC(C)C)cc2)oc2ccc(C)cc12 [9-060] | – | – | – | – | – | – | – | – | – | – | – | – | – | – | – | – | – | M (velvetleaf) herbicidal effect grade (velvetleaf [1]; 402 g/ha): 5 (Herbicidal rate of 90% or more (almost completely withered)); Q: false cleavers, herbicidal effect grade (false cleavers; [12]): 0 (Herbicidal rate of 5% or less (almost no effect)); J (blackgrass) herbicidal effect grade (blackgrass [2]; 402 g/ha): 1 (Herbicidal rate of 5% or more and less than 20%); Herbicidal effect, A: late watergrass (late watergrass [3]; [12]): 5 (Herbicidal rate of 90% or more (almost completely withered)); K (Italian ryegrass) herbicidal effect grade (Italian ryegrass; 402 g/ha): 5 (Herbicidal rate of 90% or more (almost completely withered)); Herbicidal effect on H (barnyard grass), foliage application (barnyard grass [4]; [12]): 4 (Herbicidal rate of 70% or more and less than 90%); O: lambsquarters, herbicidal effect grade (lambsquarters; [12]): 4 (Herbicidal rate of 70% or more and less than 90%); P (chickweed) herbicidal effect grade (chickweed; 402 g/ha): 5 (Herbicidal rate of 90% or more (almost completely withered)); G (green foxtail) herbicidal effect grade (green foxtail; 402 g/ha): 5 (Herbicidal rate of 90% or more (almost completely withered)); M: velvetleaf, herbicidal effect grade (velvetleaf [5]; [12]): 3 (Herbicidal rate of 40% or more and less than 70%); H (barnyard grass) herbicidal effect grade (barnyard grass [6]; 402 g/ha): 3 (Herbicidal rate of 40% or more and less than 70%); herbicidal effect grade, A: late watergrass (late watergrass [7]; [12]): 4 (Herbicidal rate of 70% or more and less than 90%); herbicidal effect grade, C: oval-leafed pondweed (oval-leafed pondweed; [12]): 4 (Herbicidal rate of 70% or more and less than 90%); F: southern crabgrass, herbicidal effect grade (southern crabgrass; [12]): 1 (Herbicidal rate of 5% or more and less than 20%); R: persian speedwell, herbicidal effect grade (persian speedwell; [12]): 5 (Herbicidal rate of 90% or more (almost completely withered)); J: blackgrass, herbicidal effect grade (blackgrass [8]; [12]): 0 (Herbicidal rate of 5% or less (almost no effect)); H: barnyard grass, herbicidal effect grade (barnyard grass [9]; [12]): 0 (Herbicidal rate of 5% or less (almost no effect))
CCCC(=O)Oc1c(C)nn(C)c(=O)c1-c1c(-c2ccc(COC)cc2)oc2ccc(C)cc12 [9-062] | 5 (Herbicidal rate of 90% or more (almost completely withered)) | 0 (Herbicidal rate of 5% or less (almost no effect)) | 4 (Herbicidal rate of 70% or more and less than 90%) | 5 (Herbicidal rate of 90% or more (almost completely withered)) | 5 (Herbicidal rate of 90% or more (almost completely withered)) | 5 (Herbicidal rate of 90% or more (almost completely withered)) | 4 (Herbicidal rate of 70% or more and less than 90%) | 5 (Herbicidal rate of 90% or more (almost completely withered)) | 5 (Herbicidal rate of 90% or more (almost completely withered)) | 5 (Herbicidal rate of 90% or more (almost completely withered)) | 4 (Herbicidal rate of 70% or more and less than 90%) | 4 (Herbicidal rate of 70% or more and less than 90%) | 5 (Herbicidal rate of 90% or more (almost completely withered)) | 4 (Herbicidal rate of 70% or more and less than 90%) | 4 (Herbicidal rate of 70% or more and less than 90%) | 3 (Herbicidal rate of 40% or more and less than 70%) | 3 (Herbicidal rate of 40% or more and less than 70%) | –
